Source: patent publication US20130345257A1, “COMPOSITION FOR LUPUS NEPHRITIS AND METHODS OF MAKING AND USING THE SAME” (The Regents of the University of California, priority 2012, published 2013)
“Also recorded” adds a separate entry of the source.

Legend:
Assay type in all cases: in vivo, mouse
[1] = system: lupus nephritis in BWF1 mice; assay: Preventive treatment of pre-nephritic BWF1 mice (survival, proteinuria, creatinine, anti-dsDNA, renal histology, IgG/C3 deposition)
Description: Clinical and immune cell changes were compared in groups of 10-12 BWF1 female mice in the following groups: • Group 1: Water orally 3 times a week for 24 weeks. • Group 2: Laquinimod 1 mg/kg orally 3 times a week for 24 weeks. • Group 3: Laquinimod 25 mg/kg orally 3 times a week for 24 weeks. • Group 4: Mycophenolate Mofetil 30 mg/kg orally […] for 24 weeks. • Group 5: Mycophenolate Mofetil 100 mg/kg orally […] for 24 weeks (“MMF 100”).
Preventive Group: 11-week old (pre-nephritic) BWF1 female mice were treated orally 3 times a week with a) water; b) laquinimod at 1 mg/kg (LAQ1, low dose) or c) 25 mg/kg (LAQ25, high dose) (Teva Pharmaceutical); or 5 times a week with d) mycophenolate mofetil at 30 mg/kg (MMF30, low dose) or e) 100 mg/kg (MMF100, high dose).
(§1) Proteinuria was evaluated weekly using Albustix (Siemens), serum creatinine using a commercial kit (Arbor Assays) and anti-dsDNA IgG antibodies by ELISA as described previously (10). See, e.g., FIGS. 1 and 2.
(§2) Kidney specimens of BWF1 mice (37 weeks of age in the prevention group or 7 and 11 weeks after institution of early or late therapies) were embedded in OCT compound and snap frozen. 4-5 μm an sections were air-dried, fixed with cold acetone and incubated with blocking buffer (anti-CD16/CD32 (1/50), 2% normal goat or rat serum, 2% BSA).
Immunoglobulin G and C3 complement glomerular deposition were investigated by incubation of cryosections with fluoroscein isothiocyanate (FITC)-conjugated goat anti-mouse IgG (1:50) (Sigma) or rat anti-mouse C3 (1:800) (Solulink) in blocking buffer for 2 hours at room temperature. Images were acquired using Nikon Eclipse TE2000-U microscope and MetaMorph 6.3 software (Sunnyvale, Calif.). Quantification of the area immunostained in tissue sections was made using the computer image analysis software ImageJ (rsbinfonihgov</>ij</>indexhtml). For histology, kidney sections were fixed in 10% formalin and 2 μm-paraffin sections were stained with H&E, PAS and methenamine silver (Jones) for histological analysis.
(§3) Histological analysis of glomerular pathology was done by an investigator blinded to treatment group and included acute inflammatory features (endocapillary hypercellularity, mesangial hypercellularity, cellular necrosis, cellular crescents, and interstitial inflammation), and chronic features (global glomerulosclerosis (GS), focal segmental glomerulosclerosis (FSGS), and interstitial fibrosis or tubular atrophy (IF/TA)). The severity of each feature was graded as 0 (absent), 1 (lesions involving up to 25% of the component evaluated), 2 (lesions in 26-50% evaluated) or 3 (lesions in >50%) in each field of the microscope at 400× magnification. The weighted total score of the clinical features was based on this formula: [endocapillary hypercellularity+mesengial hypercellularity+(cellular necrosis*2)+(cellular crescents*2)+interstitial inflammation)/5]+(GS+FSGS+IFTA)/3, with maximum score 5.2. A minimum of 25 glomeruli, of at least 10 mice per group, were scored. Scores from each individual mouse were added and averaged to yield the glomerulonephritis score.

[2] = system: BWF1 mice with high proteinuria (PU^hi); assay: Therapeutic treatment of BWF1 mice after clinical nephritis / high proteinuria (PU^hi)
Description: Therapeutic Groups: a low proteinuria group)(PU^lo) consisted of mice with IgG anti-dsDNA detectable in serum and proteinuria ≦100 mg/dL, and a high proteinuria group (PU^hi) had proteinuria ≧300 mg/dL.
as §1, §2
as §3, with “The severity of each feature was graded as 0 (absent), 1 (lesions involving up to 25% of the component evaluated), 2 (lesions in 26-50% evaluated) or 3 (lesions in >50%) in each field of the microscope at 400× magnification.” left out

[3] = system: leukocyte subsets present in kidney; assay: Leukocyte subsets in kidney of treated BWF1 mice by flow cytometry; parameters: Frequency of cells ± SEM: CD11c^+CD11b− (DC) / Frequency of cells ± SEM: CD11b^+Ly6C^+Ly6G− / Frequency of cells ± SEM: CD11b^+Ly6C^+Ly6G+ / Frequency of cells ± SEM: CD4+ / Frequency of cells ± SEM: CD8+ / Frequency of cells ± SEM: CD11b^+MDSC−(Mφ) / Frequency of cells ± SEM: CD11c^+CD11b+(DC): unit not given here; details: kidney, LAQ 25 mg/kg, MMF 100 mg/kg; for Frequency of cells ± SEM: CD19+: in % (unit assumed)
Description: Single cell suspensions of splenocytes or kidney cells were prepared using cell strainers (Fisher), followed by red blood cell lysis. Kidney lymphocytes were separated from connective tissue by centrifugation (15 minutes at 400g) in 30% Percoll (GE Healthcare). CD4^+CD25^− cells from spleen and kidney were isolated using the CD4^+CD25^+ regulatory T cell isolation kit according to manufacturer's protocol (Miltenyi). CD11b+ cells were isolated using EasySep mouse CD11b positive selection kit (StemCell Technologies), surface stained for Ly6C and Ly6G prior to sorting myeloid-derived suppressor cells (MDSC) using FACSAria II. Populations were >95% pure by FACS analysis.
Single-cell suspensions from spleen or kidneys were stained for extracellular markers for 20 min at 4° C. in PBS/1% FBS. Intracellular staining for Foxp3 and cytokines was performed using the Foxp3 Fixation/Permeabilization kit according to the manufacturer's protocol (eBioscience). Cells were acquired on a FACS LSR II (BD) and data was analyzed using Flowjo (Tree Star).

[4] = Preventive, 25 weeks after treatment
[5] = Therapeutic (PU^lo), 10 wks after initiation of therapy

COc1c(C)c2c(c(O)c1C/C=C(\C)CCC(=O)OCCN1CCOCC1)C(=O)OC2 [MMF, mycophenolate mofetil, reference compound]
Survival vs. controls ([1]; BWF1 females treated orally for 24 weeks before disease, LAQ 1 and 25 mg/kg, MMF 100 mg/kg, p=0.028): better | Survival, low dose treatment ([1]; LAQ 1 mg/kg 3 days a week, MMF 30 mg/kg 5 days a week, prior to anti-dsDNA and proteinuria, vs water): significantly better; also recorded: still alive at 45 weeks | Chronic scarring (GS, FSGS, IFTA) in kidney ([1]; higher doses, treated before proteinuria, vs water): less | Onset of proteinuria beyond 32 weeks up until about 42 weeks ([1]; low dose: LAQ 1 mg/kg 3 times a week, MMF 30 mg/kg): effective in delaying onset of proteinuria | Serum/plasma IgG anti-dsDNA antibody levels ([1]; preventive treatment, LAQ 1 or 25 mg/kg, MMF 100 mg/kg, vs water): suppressed; also recorded: lower anti-DNA levels | Prevention of proteinuria ([1]; preventive treatment, MMF 30 mg/kg, 18-week study period): did not | Prevention of proteinuria ([1]; preventive treatment, both LAQ doses (1, 25 mg/kg), MMF 100 mg/kg): prevented proteinuria and prevented the appearance of proteinuria and none | Kidney specimens (histology, glomerular IgG and C3 deposits) ([1]; preventive, LAQ 25 mg/kg, MMF 100 mg/kg, after more than 50% of controls developed high proteinuria): largely unremarkable | Mice with proteinuria at 32 wks. of age ([1]; treated before disease, LAQ 1 and 25 mg/kg, MMF 100 mg/kg, water 50%, p<0.0001): zero and none | Mean total histologic score (renal histology) ([1]; treated before disease, MMF 100 mg/kg, water 7.8, p<0.01): 0.9 | Glomerular deposition of Ig and C3 ([1]; treated prior to onset of clinical nephritis, vs water group p<0.001): in the normal range; also recorded: significantly decreased | Animals with proteinuria reduced to levels below 300 mg/dL ([2]; PU^hi arm, after 8 weeks of treatment, LAQ 25 mg/kg, MMF 100 mg/kg): approximately 25% | FSGS and IF/TA histology scores ([2]; PU^hi arm, compared to controls): significantly lower | Survival ([2]; treated after clinical nephritis / PU^hi, LAQ 25 mg/kg 3 times a week, MMF 100 mg/kg 5 times a week, vs water): not observed | Frequency of cells ± SEM: CD4+ [3, 4]: 19.4 ± 0.4 | Frequency of cells ± SEM: CD8+ [3, 4]: 8.8 ± 0.1 | Frequency of cells ± SEM: CD11b^+Ly6C^+Ly6G+ [3, 4]: 1.6 ± 0.2 | Frequency of cells ± SEM: CD11b^+Ly6C^+Ly6G− [3, 4]: 22.9 ± 0.8 | Frequency of cells ± SEM: CD11b^+MDSC−(Mφ) [3, 4]: 49.8 ± 0.7 | Frequency of cells ± SEM: CD11c^+CD11b+(DC) [3, 4]: 1.0 ± 0.1 | Frequency of cells ± SEM: CD11c^+CD11b− (DC) [3, 4]: 4.4 ± 0.3 | Frequency of cells ± SEM: CD19+ [3, 4]: 2.3 ± 0.2 | Frequency of cells ± SEM: CD4+ [3, 5]: 1.0 ± 0.1 | Frequency of cells ± SEM: CD8+ [3, 5]: 6.6 ± 0.2 | Frequency of cells ± SEM: CD11b^+Ly6C^+Ly6G+ [3, 5]: 1.9 ± 0.3 | Frequency of cells ± SEM: CD11b^+Ly6C^+Ly6G− [3, 5]: 22.4 ± 0.3 | Frequency of cells ± SEM: CD11b^+MDSC−(Mφ) [3, 5]: 45.7 ± 0.9 | Frequency of cells ± SEM: CD11c^+CD11b+(DC) [3, 5]: 0.6 ± 0.0 | Frequency of cells ± SEM: CD11c^+CD11b− (DC) [3, 5]: 1.3 ± 0.1 | Frequency of cells ± SEM: CD19+ [3, 5]: 7.2 ± 0.4
